Laboratory results taken from ChEMBL document CHEMBL4049386, “Discovery of an Inhibitor of the Proteasome Subunit Rpn11” (J Med Chem, 2017).
Active and inactive are the calls of the source. The rule behind the calls is not given here.

Tests used:
Carbonic anhydrase 2 = Carbonic anhydrase 2 (Homo sapiens, UniProt P00918); assay: Inhibition of human carbonic anhydrase-2 using p-nitrophenylacetate as substrate preincubated for 10 mins followed by substrate addition
HCT-116 = assay: cells; details: Homo sapiens, HCT-116, 72 h
Description: Antiproliferative activity against human HCT116 cells after 72 hrs by Cell Titer-Glo assay

[1] = molecular target: T1, Protein deacetylase HDAC6 (Homo sapiens, UniProt Q9UBN7); assay: Inhibition of full length recombinant human N-terminal GST-tagged HDAC6 expressed in baculovirus expression system using substrate 3 preincubated for 5 mins followed by substrate addition measured after 30 mins by fluorescence assay
T1 sequence (Q9UBN7 whole entry): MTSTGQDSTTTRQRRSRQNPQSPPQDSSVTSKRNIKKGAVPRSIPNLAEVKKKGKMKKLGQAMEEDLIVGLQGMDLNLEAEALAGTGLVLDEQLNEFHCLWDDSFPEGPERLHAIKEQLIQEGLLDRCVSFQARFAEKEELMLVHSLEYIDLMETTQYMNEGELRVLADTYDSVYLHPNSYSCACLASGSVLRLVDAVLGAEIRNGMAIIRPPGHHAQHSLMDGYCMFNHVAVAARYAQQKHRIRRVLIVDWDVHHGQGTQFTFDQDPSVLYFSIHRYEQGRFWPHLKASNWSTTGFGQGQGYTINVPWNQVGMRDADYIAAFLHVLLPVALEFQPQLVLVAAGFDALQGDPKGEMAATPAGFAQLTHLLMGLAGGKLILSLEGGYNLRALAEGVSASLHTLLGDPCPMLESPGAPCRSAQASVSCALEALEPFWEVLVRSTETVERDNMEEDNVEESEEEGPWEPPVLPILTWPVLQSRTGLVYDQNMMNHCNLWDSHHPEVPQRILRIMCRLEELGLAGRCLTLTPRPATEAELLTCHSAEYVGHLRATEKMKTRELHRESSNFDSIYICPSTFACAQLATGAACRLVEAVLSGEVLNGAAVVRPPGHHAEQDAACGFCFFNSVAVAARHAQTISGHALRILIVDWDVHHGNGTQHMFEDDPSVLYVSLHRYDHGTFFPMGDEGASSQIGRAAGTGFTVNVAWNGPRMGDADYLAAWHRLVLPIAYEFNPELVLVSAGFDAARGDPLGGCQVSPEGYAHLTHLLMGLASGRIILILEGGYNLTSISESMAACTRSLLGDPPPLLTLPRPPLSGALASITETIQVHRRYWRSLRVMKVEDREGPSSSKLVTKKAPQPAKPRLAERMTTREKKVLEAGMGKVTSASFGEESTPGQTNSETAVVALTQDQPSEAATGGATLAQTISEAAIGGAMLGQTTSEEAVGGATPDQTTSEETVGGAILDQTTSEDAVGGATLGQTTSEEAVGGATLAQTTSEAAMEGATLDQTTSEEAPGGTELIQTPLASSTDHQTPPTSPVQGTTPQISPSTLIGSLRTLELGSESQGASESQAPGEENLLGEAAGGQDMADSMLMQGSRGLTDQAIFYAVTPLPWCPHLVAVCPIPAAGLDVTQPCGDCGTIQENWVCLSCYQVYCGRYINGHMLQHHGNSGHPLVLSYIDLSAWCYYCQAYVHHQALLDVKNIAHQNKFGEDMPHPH

Histone deacetylase 1 = Histone deacetylase 1 (Homo sapiens, UniProt Q13547); assay: Inhibition of full length recombinant human C-terminal His/FLAG-tagged HDAC1 expressed in baculovirus expression system using substrate 3 preincubated for 5 mins followed by substrate addition measured after 30 mins by fluorescence assay
Chain of Histone deacetylase 1 (Q13547 whole entry, the tested form may be a part): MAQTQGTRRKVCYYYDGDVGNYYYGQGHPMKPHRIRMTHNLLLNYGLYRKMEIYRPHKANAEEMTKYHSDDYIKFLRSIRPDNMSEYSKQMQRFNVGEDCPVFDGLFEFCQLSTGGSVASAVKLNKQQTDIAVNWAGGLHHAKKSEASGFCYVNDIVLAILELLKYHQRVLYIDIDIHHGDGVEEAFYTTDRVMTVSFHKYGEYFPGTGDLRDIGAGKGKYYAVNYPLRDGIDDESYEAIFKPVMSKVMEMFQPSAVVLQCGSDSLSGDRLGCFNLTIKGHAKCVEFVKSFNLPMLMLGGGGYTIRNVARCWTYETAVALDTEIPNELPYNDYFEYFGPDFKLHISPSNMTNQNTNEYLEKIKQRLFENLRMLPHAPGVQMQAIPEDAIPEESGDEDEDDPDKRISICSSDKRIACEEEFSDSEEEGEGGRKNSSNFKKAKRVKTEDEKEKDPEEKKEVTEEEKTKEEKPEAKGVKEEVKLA

[2] = molecular target: 72 kDa type IV collagenase (Homo sapiens, UniProt P08253); assay: Inhibition of recombinant human MMP2 catalytic domain (Tyr110 to Asp452 residues) expressed in yeast using Mca-Pro-Leu-Gly-Leu-Dpa-Ala-Arg-NH2.AcOH as substrate preincubated for 30 mins followed by substrate addition measured every minute for 20 mins by fluorescence assay
Chain of 72 kDa type IV collagenase (P08253 whole entry, the tested form may be a part): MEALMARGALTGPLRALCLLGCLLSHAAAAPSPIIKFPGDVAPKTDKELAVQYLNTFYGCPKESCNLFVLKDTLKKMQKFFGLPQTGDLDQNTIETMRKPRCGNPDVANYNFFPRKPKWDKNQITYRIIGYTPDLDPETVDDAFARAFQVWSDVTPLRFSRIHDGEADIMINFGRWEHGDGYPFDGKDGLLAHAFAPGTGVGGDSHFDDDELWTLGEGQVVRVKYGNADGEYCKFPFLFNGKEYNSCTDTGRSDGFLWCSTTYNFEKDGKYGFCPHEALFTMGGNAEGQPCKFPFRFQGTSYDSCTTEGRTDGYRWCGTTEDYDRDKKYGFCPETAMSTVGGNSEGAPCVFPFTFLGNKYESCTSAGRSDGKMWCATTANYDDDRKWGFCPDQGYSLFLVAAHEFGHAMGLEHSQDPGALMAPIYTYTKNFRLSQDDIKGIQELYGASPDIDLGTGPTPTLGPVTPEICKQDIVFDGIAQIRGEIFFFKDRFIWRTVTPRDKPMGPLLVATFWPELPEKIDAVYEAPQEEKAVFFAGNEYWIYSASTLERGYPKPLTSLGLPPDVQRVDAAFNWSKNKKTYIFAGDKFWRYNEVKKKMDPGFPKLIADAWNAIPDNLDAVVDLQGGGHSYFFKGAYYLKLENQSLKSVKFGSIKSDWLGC

[3] = molecular target: COP9 signalosome complex subunit 5 (Homo sapiens, UniProt Q92905); assay: Inhibition of CSN5 (unknown origin) using SCFskp2-Nedd8OG as substrate after 1 hr by fluorescence polarization assay
Chain of COP9 signalosome complex subunit 5 (Q92905 whole entry, one chain of several): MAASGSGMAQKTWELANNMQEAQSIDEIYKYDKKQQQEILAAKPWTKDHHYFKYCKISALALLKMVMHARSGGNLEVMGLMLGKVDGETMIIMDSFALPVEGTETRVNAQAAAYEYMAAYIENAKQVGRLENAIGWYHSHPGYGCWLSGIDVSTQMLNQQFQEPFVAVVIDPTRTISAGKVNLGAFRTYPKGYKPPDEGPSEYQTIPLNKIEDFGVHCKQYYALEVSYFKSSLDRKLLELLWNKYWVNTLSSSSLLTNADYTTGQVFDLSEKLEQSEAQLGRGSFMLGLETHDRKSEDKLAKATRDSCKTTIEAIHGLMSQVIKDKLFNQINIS

[4] = molecular target: T2, Polyunsaturated fatty acid 5-lipoxygenase (Homo sapiens, UniProt P09917); assay: Inhibition of recombinant human 5-LO expressed in baculovirus infected sf9 cells using arachidonic acid as substrate preincubated for 10 mins followed by substrate addition measured every minute for 20 mins by H2DCFDA dye based fluorescence assay
T2 sequence (P09917 whole entry): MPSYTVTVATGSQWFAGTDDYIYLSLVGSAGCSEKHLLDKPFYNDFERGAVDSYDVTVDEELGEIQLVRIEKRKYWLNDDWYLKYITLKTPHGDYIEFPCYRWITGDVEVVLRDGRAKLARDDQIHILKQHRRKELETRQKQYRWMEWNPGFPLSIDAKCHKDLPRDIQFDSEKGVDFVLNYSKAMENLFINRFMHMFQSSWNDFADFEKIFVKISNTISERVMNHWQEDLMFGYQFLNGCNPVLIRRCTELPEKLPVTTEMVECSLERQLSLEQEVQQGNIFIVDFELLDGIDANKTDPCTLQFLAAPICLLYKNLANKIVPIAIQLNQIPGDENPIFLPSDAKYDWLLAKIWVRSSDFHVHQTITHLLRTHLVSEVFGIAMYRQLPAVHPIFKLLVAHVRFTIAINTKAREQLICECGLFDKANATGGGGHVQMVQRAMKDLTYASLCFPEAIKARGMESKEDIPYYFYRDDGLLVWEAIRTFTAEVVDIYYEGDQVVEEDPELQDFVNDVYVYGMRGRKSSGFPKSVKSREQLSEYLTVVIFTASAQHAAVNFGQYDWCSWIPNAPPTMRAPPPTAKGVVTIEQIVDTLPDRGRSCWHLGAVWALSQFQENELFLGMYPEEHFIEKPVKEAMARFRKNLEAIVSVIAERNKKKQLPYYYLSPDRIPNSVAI

[5] = molecular target: T3, 26S proteasome non-ATPase regulatory subunit 14 (Homo sapiens, UniProt O00487); assay: Inhibition of 26S proteasome regulatory subunit RPN11 deubiquitinating activity in human erythrocytes using Ub4-pepOG protein substrate preincubated for 1 hr followed by substrate addition measured after 80 mins by fluorescence polarization assay
T3 sequence (O00487 whole entry): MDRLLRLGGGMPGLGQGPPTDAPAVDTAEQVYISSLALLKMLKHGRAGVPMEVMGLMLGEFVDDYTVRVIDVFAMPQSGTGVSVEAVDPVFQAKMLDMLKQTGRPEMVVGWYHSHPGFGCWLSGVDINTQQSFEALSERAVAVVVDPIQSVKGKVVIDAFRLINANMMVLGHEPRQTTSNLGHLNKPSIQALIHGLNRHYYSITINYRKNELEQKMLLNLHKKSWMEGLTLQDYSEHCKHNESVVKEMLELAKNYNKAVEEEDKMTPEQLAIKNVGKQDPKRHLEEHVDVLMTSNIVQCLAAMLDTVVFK

[6] = molecular target: Lys-63-specific deubiquitinase BRCC36 (Homo sapiens) (UniProt P46736); assay: Inhibition of BRCC36 (unknown origin) using DiUbK63TAMRA as substrate by fluorescence assay
Chain of Lys-63-specific deubiquitinase BRCC36 (Homo sapiens) (P46736 whole entry): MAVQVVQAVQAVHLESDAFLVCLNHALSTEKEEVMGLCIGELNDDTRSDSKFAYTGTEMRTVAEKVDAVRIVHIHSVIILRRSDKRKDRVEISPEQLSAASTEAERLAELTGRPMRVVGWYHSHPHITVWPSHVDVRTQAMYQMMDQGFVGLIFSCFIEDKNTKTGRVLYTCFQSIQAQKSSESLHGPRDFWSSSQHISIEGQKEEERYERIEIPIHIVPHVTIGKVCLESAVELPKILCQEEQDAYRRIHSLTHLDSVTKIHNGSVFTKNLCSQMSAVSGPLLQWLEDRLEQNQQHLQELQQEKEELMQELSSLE

[7] = molecular target: T3, 26S proteasome non-ATPase regulatory subunit 14; details: 200 uM
Description: Inhibition of 26S proteasome regulatory subunit RPN11 deubiquitinating activity in human erythrocytes at 200 uM using Ub4-pepOG protein substrate preincubated for 1 hr followed by substrate addition measured after 80 mins by fluorescence polarization assay relative to control

A549 = assay: Antiproliferative activity against human A549 cells after 72 hrs by Cell Titer-Glo assay; type: functional, cell-based; details: A549, 72 h
HEK-293T = assay: Antiproliferative activity against human 293T cells after 72 hrs by Cell Titer-Glo assay; type: functional, cell-based
[8] = Aqueous solubility of the compound; type: physicochemical; details: buffer
STAM-binding protein = molecular target: T4, STAM-binding protein (Homo sapiens, UniProt O95630); assay: Inhibition of AMSH (unknown origin) using DiUbK63TAMRA as substrate by fluorescence assay
T4 sequence (O95630 whole entry): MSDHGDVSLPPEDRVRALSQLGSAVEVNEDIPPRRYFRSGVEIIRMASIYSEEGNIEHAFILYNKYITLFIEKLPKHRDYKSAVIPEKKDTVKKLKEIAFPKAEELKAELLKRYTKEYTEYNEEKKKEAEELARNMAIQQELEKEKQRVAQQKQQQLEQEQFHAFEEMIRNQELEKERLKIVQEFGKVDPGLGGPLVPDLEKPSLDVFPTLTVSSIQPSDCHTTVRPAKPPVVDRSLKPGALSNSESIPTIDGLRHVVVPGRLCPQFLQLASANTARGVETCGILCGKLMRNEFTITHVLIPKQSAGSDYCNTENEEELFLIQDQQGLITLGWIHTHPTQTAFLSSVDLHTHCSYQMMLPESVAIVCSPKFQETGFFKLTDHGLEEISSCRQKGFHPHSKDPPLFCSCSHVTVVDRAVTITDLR

Compound	IC50 (Carbonic anhydrase 2) [µM]	IC50 (HCT-116) [µM]	IC50 [1] [µM]	IC50 (Histone deacetylase 1) [µM]	IC50 [2] [µM]	IC50 [3] [µM]	IC50 [4] [µM]	IC50 [5] [µM]	inhibition [6]	inhibition [7] [%]	IC50 (A549) [µM]	IC50 (HEK-293T) [µM]	solubility [8]	IC50 (STAM-binding protein) [µM]
Cc1ccc(S)c2ncccc12	> 200	3.4	> 200	> 200	> 200	2.9	> 200	2.5	–	–	–	–	–	–
Sc1cccc2cccnc12	> 200	1.6	> 200	> 200	> 200	10.3	> 200	2.5 to 2.8	Active	100	–	–	–	–
Cc1cnc2c(S)cccc2c1	> 40	2.6	> 200	> 50	> 200	7.1	> 200	1.6	–	–	–	–	–	–
O=C(NCCc1nccs1)c1cnc2c(SSc3cccc4cc(C(=O)NCCc5nccs5)cnc34)cccc2c1	–	–	–	–	–	–	–	–	–	–	3.8	2.1	Soluble	–
CC(C)C[C@H](NC(=O)[C@H](Cc1ccccc1)NC(=O)c1cnccn1)B(O)O [BORTEZOMIB]	–	–	–	–	–	–	–	–	–	–	0.092	0.012	–	–
O=C(Nc1nccs1)c1cnc2c(SSc3cccc4cc(C(=O)Nc5nccs5)cnc34)cccc2c1	–	–	–	–	–	20	–	–	–	–	5.8	6.4	Soluble	4.7
Cc1ccnc2c(S)cccc12	> 200	> 10	> 200	> 200	> 200	25.1	> 200	5.7	–	–	–	–	–	–
Cc1cc(S)c2ncccc2c1	> 100	–	> 50	> 50	> 200	–	> 200	0.9	–	–	–	–	–	–
